Data reported in PubChem BioAssay AID330 (DTP/NCI, 2004).
Several values for one entry are separate records, joined by “and”; a condition that tells them apart may be missing. Identical values can stand only once. Inconclusive results and toxic doses are left out.

Test system: P388 leukemia ip, CD2F1 mice, survival T/C
Assay: NCI In Vivo Anticancer Drug Screen. Data for tumor model P388 Leukemia (intraperitoneal) in CD2F1 (CDF1) mice
Conditions: endpoint: median survival time, higher = longer survival
Method in brief: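 Mice carrying the transplanted tumor received test compound or vehicle. Survival was recorded in each group, and the value is the treated-group measurement divided by that of the vehicle-treated control group.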

[1] = dose: 60.0 mg/kg/injection, schedule: Q01DX005 (ip), vehicle: saline with Tween-80
[2] = dose: 120.0 mg/kg/injection, schedule: Q01DX005 (ip), vehicle: saline with Tween-80
[3] = dose: 240.0 mg/kg/injection, schedule: Q01DX005 (ip), vehicle: saline with Tween-80
[4] = dose: 50.0 mg/kg/injection, schedule: Q01DX009 (ip), vehicle: saline with Tween-80
[5] = dose: 100.0 mg/kg/injection, schedule: Q01DX009 (ip), vehicle: saline with Tween-80
[6] = dose: 200.0 mg/kg/injection, schedule: Q01DX009 (ip), vehicle: saline with Tween-80
[7] = dose: 25.0 mg/kg/injection, schedule: Q01DX009 (ip), vehicle: saline with Tween-80
[8] = dose: 50.0 mg/kg/injection, schedule: Q01DX005 (ip), vehicle: Klucel (hydroxypropylcellulose) (HPC)
[9] = dose: 100.0 mg/kg/injection, schedule: Q01DX005 (ip), vehicle: Klucel (hydroxypropylcellulose) (HPC)
[10] = dose: 50.0 mg/kg/injection, schedule: Q01DX009 (ip), vehicle: Klucel (hydroxypropylcellulose) (HPC)
[11] = dose: 12.5 mg/kg/injection, schedule: Q01DX009 (ip), vehicle: saline with Tween-80
[12] = dose: 200.0 mg/kg/injection, schedule: Q01DX005 (ip), vehicle: Klucel (hydroxypropylcellulose) (HPC)

COc1ccc(NC(=S)Nc2ccc(OCCCN3CCOCC3)cc2)cc1
T/C (dose: 100.0 mg/kg/injection, schedule: Q04DX002 (ip), vehicle: Klucel (hydroxypropylcellulose) (HPC)): 96 % of control
T/C (dose: 200.0 mg/kg/injection, schedule: Q04DX002 (ip), vehicle: Klucel (hydroxypropylcellulose) (HPC)): 94 % of control
T/C (dose: 400.0 mg/kg/injection, schedule: Q04DX002 (ip), vehicle: Klucel (hydroxypropylcellulose) (HPC)): 94 % of control

CC1C(=O)OC2C1CCC1(C)C3(C)C(=O)C=CC213 (centres undefined)
T/C (dose: 15.0 mg/kg/injection, schedule: Q01DX005 (ip), vehicle: Klucel (hydroxypropylcellulose) (HPC)): 97 % of control
T/C (dose: 30.0 mg/kg/injection, schedule: Q01DX005 (ip), vehicle: Klucel (hydroxypropylcellulose) (HPC)): 101 % of control
T/C (dose: 60.0 mg/kg/injection, schedule: Q01DX005 (ip), vehicle: Klucel (hydroxypropylcellulose) (HPC)): 104 % of control and 93 % of control

Nc1nnc(/C=C/c2ccc(Cl)cc2)o1
T/C [1]: 98 % of control
T/C [2]: 105 % of control
T/C [3]: 106 % of control

CCn1c2ccccc2c2cc(N=Nc3[nH]c4ccccc4c3CN(C)C)ccc21
T/C [4]: 107 % of control and 108 % of control (2×)
T/C [5]: 105 % of control and 106 % of control
T/C [6]: 100 % of control and 115 % of control and 118 % of control

Oc1cc(CN2CCCC2)c(O)cc1CN1CCCC1
T/C [7]: 103 % of control and 111 % of control
T/C [4]: 103 % of control and 111 % of control
T/C [5]: 110 % of control and 111 % of control

CN1C(=O)c2ccccc2NC12CCN(Cc1ccccc1)CC2
T/C (dose: 25.0 mg/kg/injection, schedule: Q01DX005 (ip), vehicle: Klucel (hydroxypropylcellulose) (HPC)): 103 % of control
T/C [8]: 95 % of control
T/C [9]: 97 % of control

CCCC[N+]1(CC)CCCCC1
T/C (dose: 3.12 mg/kg/injection, schedule: Q01DX009 (ip), vehicle: saline): 97 % of control
T/C (dose: 6.25 mg/kg/injection, schedule: Q01DX009 (ip), vehicle: saline): 113 % of control
T/C (dose: 12.5 mg/kg/injection, schedule: Q01DX009 (ip), vehicle: saline): 106 % of control

COC(=O)C1C(O)C(C)C(O)C(C)/C=C\C=C(C)C(=O)Nc2c(C)c(OC(C)=O)c3c(c2O)C(=O)C(C)=C2OCOC(=C23)C(C)=CC(C)(O)C(O)C(C)C1O (centres undefined)
T/C (dose: 25.0 mg/kg/injection, schedule: Q01DX009 (ip), vehicle: saline): 107 % of control
T/C (dose: 50.0 mg/kg/injection, schedule: Q01DX009 (ip), vehicle: saline): 107 % of control
T/C (dose: 100.0 mg/kg/injection, schedule: Q01DX009 (ip), vehicle: saline): 107 % of control
T/C (dose: 200.0 mg/kg/injection, schedule: Q01DX009 (ip), vehicle: saline): 89 % of control

NC(=S)N1CC=CCC1
T/C [10]: 99 % of control
T/C (dose: 100.0 mg/kg/injection, schedule: Q01DX009 (ip), vehicle: Klucel (hydroxypropylcellulose) (HPC)): 101 % of control
T/C (dose: 200.0 mg/kg/injection, schedule: Q01DX009 (ip), vehicle: Klucel (hydroxypropylcellulose) (HPC)): 101 % of control

CCc1onc(-c2noc(CC)c2C)c1C
T/C (dose: 60.0 mg/kg/injection, schedule: Q01DX005 (ip), vehicle: saline): 98 % of control
T/C (dose: 120.0 mg/kg/injection, schedule: Q01DX005 (ip), vehicle: saline): 104 % of control
T/C (dose: 240.0 mg/kg/injection, schedule: Q01DX005 (ip), vehicle: saline): 107 % of control

CN(C)c1ccc2c3c(c(=O)oc2c1)CCC3
T/C (dose: 3.12 mg/kg/injection, schedule: Q01DX009 (ip), vehicle: saline with Tween-80): 102 % of control
T/C (dose: 6.25 mg/kg/injection, schedule: Q01DX009 (ip), vehicle: saline with Tween-80): 112 % of control
T/C [11]: 114 % of control and 115 % of control
T/C [7]: 107 % of control
T/C [4]: 104 % of control and 111 % of control
T/C [6]: 94 % of control

CC[C@H]1CN2CCc3cc(OC)c(OC)cc3[C@@H]2C[C@@H]1C[C@H]1NCCc2cc(OC)c(OC)cc21
T/C (dose: 1.0 mg/kg/injection, schedule: Q01DX009 (ip), vehicle: water): 112 % of control and 118 % of control
T/C (dose: 4.0 mg/kg/injection, schedule: Q01DX009 (ip), vehicle: water): 154 % of control
T/C (dose: 4.32 mg/kg/injection, schedule: Q04DX003 (ip), vehicle: saline): 118 % of control and 122 % of control
T/C (dose: 5.0 mg/kg/injection, schedule: Q04DX003 (ip), vehicle: saline): 121 % of control
T/C (dose: 5.18 mg/kg/injection, schedule: Q04DX002 (ip), vehicle: saline): 106 % of control
T/C (dose: 5.18 mg/kg/injection, schedule: Q04DX003 (ip), vehicle: saline): 122 % of control
T/C (dose: 7.2 mg/kg/injection, schedule: Q04DX003 (ip), vehicle: saline): 123 % of control
T/C (dose: 8.0 mg/kg/injection, schedule: Q01DX009 (ip), vehicle: water): 166 % of control and 183 % of control
T/C (dose: 8.64 mg/kg/injection, schedule: Q04DX003 (ip), vehicle: saline): 122 % of control
T/C (dose: 12.0 mg/kg/injection, schedule: Q04DX003 (ip), vehicle: saline): 153 % of control
T/C (dose: 14.4 mg/kg/injection, schedule: Q04DX002 (ip), vehicle: saline): 151 % of control and 156 % of control
T/C (dose: 14.4 mg/kg/injection, schedule: Q04DX003 (ip), vehicle: saline): 153 % of control
T/C (dose: 16.0 mg/kg/injection, schedule: Q01DX009 (ip), vehicle: water): 115 % of control
T/C (dose: 20.0 mg/kg/injection, schedule: Q04DX003 (ip), vehicle: saline): 169 % of control and 174 % of control and 175 % of control
T/C (dose: 24.0 mg/kg/injection, schedule: Q04DX002 (ip), vehicle: saline): 175 % of control and 177 % of control
T/C (dose: 24.0 mg/kg/injection, schedule: Q04DX003 (ip), vehicle: saline): 183 % of control and 213 % of control
T/C (dose: 33.3 mg/kg/injection, schedule: Q04DX003 (ip), vehicle: saline): 224 % of control and 94 % of control

C/C=C/CC1(CC)C(=O)NC(=S)NC1=O
T/C [4]: 100 % of control

OCC1OC(O)C(N=Cc2ccccc2O)C(O)C1O (centres undefined)
T/C [8]: 104 % of control
T/C [9]: 104 % of control
T/C [12]: 106 % of control

CC(C)n1nnc2c3ccccc3c3ccccc3c21
T/C [1]: 109 % of control
T/C [2]: 102 % of control
T/C [3]: 105 % of control

COc1cc(OC)c2cc(-n3nnc4cc([N+](=O)[O-])ccc43)c(=O)oc2c1
T/C (dose: 7.5 mg/kg/injection, schedule: Q01DX005 (ip), vehicle: saline with Tween-80): 100 % of control
T/C (dose: 15.0 mg/kg/injection, schedule: Q01DX005 (ip), vehicle: saline with Tween-80): 95 % of control
T/C (dose: 30.0 mg/kg/injection, schedule: Q01DX005 (ip), vehicle: saline with Tween-80): 88 % of control
T/C [1]: 88 % of control

O=C(O)C(CCc1nc2ccccc2[nH]1)NS(=O)(=O)c1ccccc1 (centres undefined)
T/C [11]: 115 % of control
T/C [7]: 95 % of control
T/C [4]: 103 % of control and 91 % of control
T/C [5]: 102 % of control
T/C [6]: 102 % of control

O=C(NC(C(=O)O)C1CC(Cl)=NO1)OCC1c2ccccc2-c2ccccc21 (centres undefined)
T/C (dose: 3.1 mg/kg/injection, schedule: Q04DX003 (ip), vehicle: other): 104 % of control
T/C (dose: 6.2 mg/kg/injection, schedule: Q04DX003 (ip), vehicle: other): 116 % of control
T/C (dose: 12.5 mg/kg/injection, schedule: Q04DX003 (ip), vehicle: other): 120 % of control
T/C (dose: 25.0 mg/kg/injection, schedule: Q04DX003 (ip), vehicle: other): 120 % of control and 123 % of control
T/C (dose: 100.0 mg/kg/injection, schedule: Q04DX003 (ip), vehicle: other): 157 % of control
T/C (dose: 200.0 mg/kg/injection, schedule: Q04DX003 (ip), vehicle: other): 150 % of control

C=C(C)C12OC3(c4ccccc4)OC1C1C4OC4(CO)C(O)C4(O)C(=O)C(C)=CC4C1(O3)C(C)C2OC(=O)c1ccccc1 (centres undefined)
T/C (dose: 0.1 mg/kg/injection, schedule: Q01DX009 (ip), vehicle: saline): 91 % of control
T/C (dose: 0.2 mg/kg/injection, schedule: Q01DX009 (ip), vehicle: saline): 100 % of control
T/C (dose: 0.4 mg/kg/injection, schedule: Q01DX009 (ip), vehicle: saline): 90 % of control
T/C (dose: 0.8 mg/kg/injection, schedule: Q01DX009 (ip), vehicle: saline): 96 % of control

O=C(N1CCN(C(=O)S(=O)(=O)c2ccc(F)cc2)CC1)S(=O)(=O)c1ccc(F)cc1
T/C [8]: 99 % of control
T/C [9]: 98 % of control
T/C [12]: 100 % of control

Cc1cc(N)c(C)c(Br)c1C
T/C [4]: 106 % of control
T/C [5]: 99 % of control
T/C [6]: 106 % of control

CC(=O)N(C(C)=O)c1ccc(C)cc1
T/C (dose: 12.5 mg/kg/injection, schedule: Q01DX009 (ip), vehicle: Klucel (hydroxypropylcellulose) (HPC)): 94 % of control
T/C (dose: 25.0 mg/kg/injection, schedule: Q01DX009 (ip), vehicle: Klucel (hydroxypropylcellulose) (HPC)): 94 % of control
T/C [10]: 100 % of control
